Where a name gives a salt, the structure may show the parent alone.
Target: T1, ERα (Homo sapiens, UniProt P03372)
T1 construct: host or cells: MCF7
T1 sequence (P03372 1-595): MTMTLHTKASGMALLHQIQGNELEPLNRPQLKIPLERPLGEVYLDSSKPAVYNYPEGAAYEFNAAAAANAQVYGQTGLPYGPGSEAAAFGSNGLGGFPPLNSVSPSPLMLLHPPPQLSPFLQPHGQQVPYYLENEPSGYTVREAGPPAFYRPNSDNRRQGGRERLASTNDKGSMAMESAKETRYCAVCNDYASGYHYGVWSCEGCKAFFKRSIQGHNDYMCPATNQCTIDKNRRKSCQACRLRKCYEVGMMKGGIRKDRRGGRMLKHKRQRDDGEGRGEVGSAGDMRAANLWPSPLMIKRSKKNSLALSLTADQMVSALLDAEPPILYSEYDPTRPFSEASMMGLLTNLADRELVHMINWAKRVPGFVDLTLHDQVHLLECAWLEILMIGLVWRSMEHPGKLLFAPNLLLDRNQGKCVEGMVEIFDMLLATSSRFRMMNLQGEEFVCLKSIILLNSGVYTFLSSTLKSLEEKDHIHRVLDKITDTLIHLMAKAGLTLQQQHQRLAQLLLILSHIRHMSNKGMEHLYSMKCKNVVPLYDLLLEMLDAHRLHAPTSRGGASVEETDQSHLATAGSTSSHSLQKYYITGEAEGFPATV
Test: Estrogen receptor degradation activity: breast cancer cell ERα in cell western assay (MCF7 cells)
Type: cell-based
Conditions: for % Degradation At 0.3 μM: 4 hours, relative to fulvestrant 0.1 μM positive control; for DC50: 4 hours post compound addition, concentration which degrades 50% of the estrogen receptor, read-out: Degradation IC50
Summary of the method: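 In-cell western readout: ERα immunofluorescence (Alexa 488) normalised to DNA signal (Syto-64) after formalin fixation. Compounds dosed for 4 h on MCF7 cells in stripped-serum, phenol-red-free medium over nine 1:5 steps, 0.3 to […] final; fulvestrant 0.1 μM control. IC50 in nM for 50% ERα degradation.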

Row | Structure (SMILES) | % Degradation At 0.3 μM [%] | DC50 [nM]
1 | O=C(O)c1ccc2c(c1)CCCC(c1ccc(F)cc1F)=C2c1ccc(C=C2CN(CCCF)C2)c(F)c1F [Example 43, 9-(2,3-difluoro-4-((1-(3-fluoropropyl)azetidin-3-ylidene)methyl)phenyl)-8-(2,4-difluorophenyl)-6,7-dihydro-5H-benzo[7]annulene-3-carboxylic acid] | 92 | 0.4
2 | O=C(O)c1ccc2c(c1)CCCC(C13CCCC1C3)=C2c1ccc(C=C2CN(CCCF)C2)cc1 (stereo not drawn) [Example 175, 8-(bicyclo[3.1.0]hexan-1-yl)-9-(4-((1-(3-fluoropropyl)azetidin-3-ylidene)methyl)phenyl)-6,7-dihydro-5H-benzo[7]annulene-3-carboxylic acid] | 87 | 0.3
3 | O=C(O)c1ccc2c(c1)CCCC(c1ccc(Cl)cc1Cl)=C2c1ccc(C=C2CN(CCC(F)(F)F)C2)cc1 [Example 109, 8-(2,4-dichlorophenyl)-9-(4-((1-(3,3,3-trifluoropropyl)azetidin-3-ylidene)methyl)phenyl)-6,7-dihydro-5H-benzo[7]annulene-3-carboxylic acid] | 91 | 1.4
4 | O=C(O)c1ccc2c(c1)OCCC(c1ccc(Cl)cc1Cl)=C2c1ccc(C=C2CN(CCCF)C2)cc1 [Example 114, 4-(2,4-Dichlorophenyl)-5-(4-((1-(3-fluoropropyl)azetidin-3-ylidene)methyl)phenyl)-2,3-dihydrobenzo[b]oxepine-8-carboxylic acid hydrochloride] | 91 | 0.4
5 | Cc1cc(C=C2CN(CCCF)C2)cc(F)c1C1=C(c2ccc(F)cc2F)CCCc2cc(C(=O)O)ccc21 [Example 31, 8-(2,4-difluorophenyl)-9-(2-fluoro-4-((1-(3-fluoropropyl)azetidin-3-ylidene)methyl)-6-methylphenyl)-6,7-dihydro-5H-benzo[7]annulene-3-carboxylic acid] | 92 | 0.8
6 | Cc1c(C2=C(c3ccc(C=C4CN(CCC(F)F)C4)cc3)c3ccc(C(=O)O)cc3CCC2)cccc1C(F)(F)F [Example 134, 9-(4-((1-(3,3-difluoropropyl)azetidin-3-ylidene)methyl)phenyl)-8-(2-methyl-3-(trifluoromethyl)phenyl)-6,7-dihydro-5H-benzo[7]annulene-3-carboxylic acid] | 93 | 1.1
7 | Cc1cc(Cl)cc(C)c1C1=C(c2ccc(C=C3CN(CCCF)C3)cc2)c2ccc(C(=O)O)cc2CCC1 [Example 83, 8-(4-chloro-2,6-dimethylphenyl)-9-(4-((1-(3-fluoropropyl)azetidin-3-ylidene)methyl)phenyl)-6,7-dihydro-5H-benzo[7]annulene-3-carboxylic acid] | 93 | 0.4
8 | Cc1ccc(C2=C(c3ccc(C=C4CN(CCCF)C4)cc3)c3ccc(C(=O)O)cc3CCC2)c(C)c1 [Example 77, 8-(2,4-dimethylphenyl)-9-(4-((1-(3-fluoropropyl)azetidin-3-ylidene)methyl)phenyl)-6,7-dihydro-5H-benzo[7]annulene-3-carboxylic acid] | 92 | 0.4
9 | CCOc1ccc(C2=C(c3ccc(C=C4CN(CCCF)C4)cc3)c3ccc(C(=O)O)cc3CCC2)cc1C(F)(F)F [Example 149, 8-(4-ethoxy-3-(trifluoromethyl)phenyl)-9-(4-((1-(3-fluoropropyl)azetidin-3-ylidene)methyl)phenyl)-6,7-dihydro-5H-benzo[7]annulene-3-carboxylic acid] | 87 | 0.4
10 | Cc1cc(Cl)ccc1C1=C(c2ccc(C=C3CN(CCCF)C3)cc2)c2ccc(C(=O)O)cc2CCC1 [Example 89, 8-(4-chloro-2-methylphenyl)-9-(4-((1-(3-fluoropropyl)azetidin-3-ylidene)methyl)phenyl)-6,7-dihydro-5H-benzo[7]annulene-3-carboxylic acid] | 98 | 0.2
11 | O=C(O)c1ccc2c(c1)CCCC(c1ncc(F)cc1C(F)(F)F)=C2c1ccc(C=C2CN(CCCF)C2)cc1 [Example 18, 8-(5-fluoro-3-(trifluoromethyl)pyridin-2-yl)-9-(4-((1-(3-fluoropropyl)azetidin-3-ylidene)methyl)phenyl)-6,7-dihydro-5H-benzo[7]annulene-3-carboxylic acid] | 90 | 0.6
12 | O=C(O)c1ccc2c(c1)CCCC(c1cc(C(F)(F)F)ccc1Cl)=C2c1ccc(C=C2CN(CCCF)C2)cc1 [Example 140, 8-(2-chloro-5-(trifluoromethyl)phenyl)-9-(4-((1-(3-fluoropropyl)azetidin-3-ylidene)methyl)phenyl)-6,7-dihydro-5H-benzo[7]annulene-3-carboxylic acid] | 92 | 0.5
13 | Cc1cccc(C2=C(c3ccc(C=C4CN(CCC(F)F)C4)cc3)c3ccc(C(=O)O)cc3CCC2)c1C(F)(F)F [Example 116, 9-(4-((1-(3,3-difluoropropyl)azetidin-3-ylidene)methyl)phenyl)-8-(3-methyl-2-(trifluoromethyl)phenyl)-6,7-dihydro-5H-benzo[7]annulene-3-carboxylic acid] | 90 | 0.7
14 | Cc1cc(F)ccc1C1=C(c2c(C)cc(C=C3CN(CCCF)C3)cc2F)c2ccc(C(=O)O)cc2CCC1.Cl [Example 62, 8-(4-fluoro-2-methylphenyl)-9-(2-fluoro-4-((1-(3-fluoropropyl)azetidin-3-ylidene)methyl)-6-methylphenyl)-6,7-dihydro-5H-benzo[7]annulene-3-carboxylic acid hydrochloride] | 99 | 0.5
15 | Cc1c(Cl)cccc1C1=C(c2ccc(C=C3CN(CCC(F)F)C3)cc2)c2ccc(C(=O)O)cc2CCC1 [Example 126, 8-(3-chloro-2-methylphenyl)-9-(4-((1-(3,3-difluoropropyl)azetidin-3-ylidene)methyl)phenyl)-6,7-dihydro-5H-benzo[7]annulene-3-carboxylic acid] | 93 | 0.5
16 | O=C(O)c1ccc2c(c1)CCCC(c1c(F)cc(F)cc1F)=C2c1ccc(C=C2CN(CCCF)C2)cc1 [Example 33, 9-(4-((1-(3-fluoropropyl)azetidin-3-ylidene)methyl)phenyl)-8-(2,4,6-trifluorophenyl)-6,7-dihydro-5H-benzo[7]annulene-3-carboxylic acid] | 92 | 0.3
17 | Cc1cc(F)ccc1C1=C(c2ccc(C=C3CN(CCC(F)F)C3)cc2)c2ccc(C(=O)O)cc2CCC1 [Example 19, 9-(4-((1-(3,3-difluoropropyl)azetidin-3-ylidene)methyl)phenyl)-8-(4-fluoro-2-methylphenyl)-6,7-dihydro-5H-benzo[7]annulene-3-carboxylic acid] | 93 | 0.2
18 | O=C(O)c1ccc2c(c1)CCCC(c1ccc(F)cc1F)=C2c1ccc(C=C2CN(CCC(F)F)C2)cc1 [Example 20, 8-(2,4-difluorophenyl)-9-(4-((1-(3,3-difluoropropyl)azetidin-3-ylidene)methyl)phenyl)-6,7-dihydro-5H-benzo[7]annulene-3-carboxylic acid] | 92 | 0.3
